Source: patent US20240336588A1, “COMPOSITIONS AND METHODS FOR ANTIOXIDANT AND ANTI-INFLAMMATORY THERAPEUTICS” (AVANTI BIOSCIENCES INC., priority 2021, published 2024)

Biological target: DYRK1A (HT-497, 6×His tagged rat truncated DYRK1A isoform X1 residues 1-497) (Rattus norvegicus (Rat), UniProt Q63470)
Experiment: DYRK1A ELISA assay (HT-PRD phosphorylation)
Type: biochemical
Details: 100 µM ATP, 5 ng HT-497, 30 min at 30° C.
Protocol: Compounds of Table 1, above, were examined in vitro for activity against DYRK1A, DYRK1B, DYRK2 via an ELISA assay.
DYRK1A assay. […] After blocking, wells were washed extensively with dilution buffer before subjecting to phosphorylation. […] At the end point, wells were washed with ˜350 μl dilution buffer three times to terminate the reaction. […] Each point was run in quadruplicate with DMSO present in all assays at 0.2% final concentration. […] HT-PRD phosphorylation was subsequently determined by the sandwich antibody staining protocol, first with 100 μl mouse mAb 3D3 specific for detecting DYRK1A-phosphorylated PRD (60 min at room temperature) then with 100 μl alkaline phosphatase (AP)-linked anti-mouse secondary antibody (60 min at room temperature), followed by colorimetric reaction with 100 μl PNPP solution (PNPP substrate tablet, Thermo Fisher). […] The readings were then recorded for subsequent IC50 calculation. The DYRK1A assay protocol can also support DYRK1B and DYRK2 phosphorylation reactions in the enzyme concentration-dependent manner; therefore, the method was adapted for measuring the activity of candidate compounds against DYRK1B and DYRK2. For DYRK2, the reactions were performed as described above with 6 ng HT-DYRK2 (6×His tagged full-length human DYRK2 isoform 1). For DYRK1B, the assays were also similarly conducted but with 70 ng GST-DYRK1B (glutathione S-transferase tagged full length human DYRK1B isoform p65) and an extended kinase reaction time of 60 min.
Dilution factors for both mAb 3D3 and secondary antibody were pre-determined for each batch of antibody to ensure that neither antibody was limiting in the assay.
Data transformation, calculation, plotting, curve fitting, and IC 50 calculation were performed in KaleidaGraph (http://www.synergy.com/wordpress_650164087; Mac version 4.1). Data was corrected for background (readings from wells with only PNPP) before subsequent manipulations. […] The resulting residual activity was then plotted against its corresponding inhibitor concentrations in semi-log graph and the plot was fit to the sigmoidal equation, y=a+(b−a)/(1+(x/c)^d), for IC50 calculation.

| IC50 [µM] | Structure (SMILES) |
| --- | --- |
| > 0.1 | O=C(O[C@@H]1Cc2c(O)cc(O)cc2O[C@@H]1c1ccc(O)c(O)c1)c1cc(O)c(O)c(O)c1 [Compound 6, (2R,3R)-2-(3,4-dihydroxyphenyl)-5,7-dihydroxychroman-3-yl 3,4,5-trihydroxybenzoate] |
| > 0.1 | O=C(O[C@@H]1Cc2c(O)cc(O)cc2O[C@H]1c1ccc(O)c(O)c1)c1cc(O)c(O)c(O)c1 [Compound 7, (2S,3R)-2-(3,4-dihydroxyphenyl)-5,7-dihydroxychroman-3-yl 3,4,5-trihydroxybenzoate] |
| > 0.1 | COc1cc(C(=O)O[C@@H]2Cc3c(O)cc(O)cc3O[C@@H]2c2cc(O)c(O)c(O)c2)cc(O)c1O [Compound 8, (2R,3R)-5,7-dihydroxy-2-(3,4,5-trihydroxyphenyl)chroman-3-yl 3,4-dihydroxy-5-methoxybenzoate] |
| > 0.1 | O=C(N[C@H]1Cc2c(O)cc(O)cc2O[C@@H]1c1cc(O)c(O)c(O)c1)c1cc(O)c(O)c(O)c1 [Compound 9, N-((2R,3S)-5,7-dihydroxy-2-(3,4,5-trihydroxyphenyl)chroman-3-yl)-3,4,5-trihydroxybenzamide] |
| > 1 | COc1cc(C(=O)N[C@H]2Cc3c(O)cc(O)cc3O[C@@H]2c2cc(O)c(O)c(O)c2)cc(O)c1O [Compound 10, N-((2R,3S)-5,7-dihydroxy-2-(3,4,5-trihydroxyphenyl)chroman-3-yl)-3,4-dihydroxy-5-methoxybenzamide] |
| > 0.1 | O=C(O[C@@H]1Cc2c(O)cc(O)cc2O[C@@H]1c1cc(O)c(O)c(O)c1)c1ccc(O)c(O)c1 [Compound 11, (2R,3R)-5,7-dihydroxy-2-(3,4,5-trihydroxyphenyl)chroman-3-yl 3,4-dihydroxybenzoate] |
| > 0.1 | CC(C)C(=O)Oc1c(O)cc(C(=O)O[C@@H]2Cc3c(O)cc(O)cc3O[C@@H]2c2cc(O)c(O)c(O)c2)cc1O [Compound 14, (2R,3R)-5,7-dihydroxy-2-(3,4,5-trihydroxyphenyl)chroman-3-yl 3,5-dihydroxy-4-(isobutyryloxy)benzoate] |
| > 1 | O=C(N[C@H]1Cc2c(O)cc(O)cc2O[C@@H]1c1cc(O)c(O)c(O)c1)c1ccc(O)c(O)c1 [Compound 15, N-((2R,3S)-5,7-dihydroxy-2-(3,4,5-trihydroxyphenyl)chroman-3-yl)-3,4-dihydroxybenzamide] |
| > 1 | O=C(N[C@H]1Cc2c(O)cc(O)cc2O[C@@H]1c1cc(O)c(O)c(O)c1)c1ccc(O)cc1 [Compound 16, N-((2R,3S)-5,7-dihydroxy-2-(3,4,5-trihydroxyphenyl)chroman-3-yl)-4-hydroxybenzamide] |
| > 1 | O=C(N[C@H]1Cc2c(O)cc(O)cc2O[C@@H]1c1cc(O)c(O)c(O)c1)c1ccc(F)c(F)c1 [Compound 17, N-((2R,3S)-5,7-dihydroxy-2-(3,4,5-trihydroxyphenyl)chroman-3-yl)-3,4-difluorobenzamide] |
| > 0.1 | COc1cc(C(=O)O[C@H]2Cc3c(O)cc(O)cc3O[C@@H]2c2cc(O)c(O)c(O)c2)cc(O)c1O [Compound 18, (2R,3S)-5,7-dihydroxy-2-(3,4,5-trihydroxyphenyl)chroman-3-yl 3,4-dihydroxy-5-methoxybenzoate] |
| > 0.1 | O=C(O[C@H]1Cc2c(O)cc(O)cc2O[C@@H]1c1cc(O)c(O)c(O)c1)c1ccc(O)c(O)c1 [Compound 19, (2R,3S)-5,7-dihydroxy-2-(3,4,5-trihydroxyphenyl)chroman-3-yl 3,4-dihydroxybenzoate] |
| > 1 | O=C(O[C@H]1Cc2c(O)cc(O)cc2O[C@@H]1c1cc(O)c(O)c(O)c1)c1ccc(O)cc1 [Compound 20, (2R,3S)-5,7-dihydroxy-2-(3,4,5-trihydroxyphenyl)chroman-3-yl 4-hydroxybenzoate] |
| > 1 | O=C(O[C@@H]1Cc2c(O)cc(O)cc2O[C@@H]1c1cc(O)c(O)c(O)c1)c1ccc(O)cc1 [Compound 21, (2R,3R)-5,7-dihydroxy-2-(3,4,5-trihydroxyphenyl)chroman-3-yl 4-hydroxybenzoate] |
| > 1 | O=C(O[C@H]1Cc2c(O)cc(O)cc2O[C@@H]1c1cc(O)c(O)c(O)c1)c1ccc(F)c(F)c1 [Compound 24, (2R,3S)-5,7-dihydroxy-2-(3,4,5-trihydroxyphenyl)chroman-3-yl 3,4-difluorobenzoate] |
| > 1 | O=C(O[C@@H]1Cc2c(O)cc(O)cc2O[C@@H]1c1cc(O)c(O)c(O)c1)c1ccc(F)c(F)c1 [Compound 25, (2R,3R)-5,7-dihydroxy-2-(3,4,5-trihydroxyphenyl)chroman-3-yl 3,4-difluorobenzoate] |
| > 0.1 | O=C(O[C@H]1Cc2c(O)cc(O)cc2O[C@@H]1c1cc(O)c(O)c(O)c1)c1cnc(O)c(O)c1 [Compound 27, (2R,3S)-5,7-dihydroxy-2-(3,4,5-trihydroxyphenyl)chroman-3-yl 5,6-dihydroxynicotinate] |
| > 0.1 | O=C(O[C@@H]1Cc2cccc(O)c2C[C@H]1c1cc(O)c(O)c(O)c1)c1cc(O)c(O)c(O)c1 [Compound 33, (2R,3S)-5-hydroxy-3-(3,4,5-trihydroxyphenyl)-1,2,3,4-tetrahydronaphthalen-2-yl 3,4,5-trihydroxybenzoate] |
| > 0.1 | O=C(O[C@@H]1Cc2c(O)cc(O)cc2O[C@H]1c1cc(O)c(O)c(O)c1)c1ccc(O)c(O)c1 [Compound 34, (2S,3R)-5,7-dihydroxy-2-(3,4,5-trihydroxyphenyl)chroman-3-yl 3,4-dihydroxybenzoate] |
| > 1 | Nc1ncc(C(=O)O[C@@H]2Cc3c(O)cc(O)cc3O[C@H]2c2cc(O)c(O)c(O)c2)cc1O [Compound 36, (2S,3R)-5,7-dihydroxy-2-(3,4,5-trihydroxyphenyl)chroman-3-yl 6-amino-5-hydroxynicotinate] |
| > 1 | CS(=O)(=O)Nc1ccc(C(=O)O[C@@H]2Cc3c(O)cc(O)cc3O[C@H]2c2cc(O)c(O)c(O)c2)cc1O [Compound 37, (2S,3R)-5,7-dihydroxy-2-(3,4,5-trihydroxyphenyl)chroman-3-yl 3-hydroxy-4-(methylsulfonamido)benzoate] |

| Structure (SMILES) | IC50 [µM] |
| --- | --- |
| CCNC(=O)Oc1cc(C(=O)O[C@@H]2Cc3c(O)cc(O)cc3O[C@@H]2c2cc(O)c(O)c(O)c2)cc(O)c1O [Compound 12, (2R,3R)-5,7-dihydroxy-2-(3,4,5-trihydroxyphenyl)chroman-3-yl 3-((ethylcarbamoyl)oxy)-4,5-dihydroxybenzoate] | > 0.1 |
| CCNC(=O)Oc1c(O)cc(C(=O)O[C@@H]2Cc3c(O)cc(O)cc3O[C@@H]2c2cc(O)c(O)c(O)c2)cc1O [Compound 13, (2R,3R)-5,7-dihydroxy-2-(3,4,5-trihydroxyphenyl)chroman-3-yl 4-((ethylcarbamoyl)oxy)-3,5-dihydroxybenzoate] | > 1 |
| O=C(O[C@H]1Cc2c(O)cc(O)cc2O[C@@H]1c1cc(O)c(O)c(O)c1)c1ccncc1 [Compound 22, (2R,3S)-5,7-dihydroxy-2-(3,4,5-trihydroxyphenyl)chroman-3-yl isonicotinate] | > 1 |
| O=C(O[C@@H]1Cc2c(O)cc(O)cc2O[C@@H]1c1cc(O)c(O)c(O)c1)c1ccncc1 [Compound 23, (2R,3R)-5,7-dihydroxy-2-(3,4,5-trihydroxyphenyl)chroman-3-yl isonicotinate] | > 1 |
| O=C(O[C@@H]1Cc2c(O)cc(O)cc2O[C@@H]1c1cc(O)c(O)c(O)c1)c1ccn(O)c(=O)c1 [Compound 26, (2R,3R)-5,7-dihydroxy-2-(3,4,5-trihydroxyphenyl)chroman-3-yl 1-hydroxy-2-oxo-1,2-dihydropyridine-4-carboxylate] | > 1 |
| O=C(O[C@H]1Cc2c(O)cc(O)cc2O[C@@H]1c1ccc(O)c(O)c1)c1ccc(O)c(O)c1 [Compound 28, (2R,3S)-2-(3,4-dihydroxyphenyl)-5,7-dihydroxychroman-3-yl 3,4-dihydroxybenzoate] | > 1 |
| Nc1ncc(C(=O)O[C@H]2Cc3c(O)cc(O)cc3O[C@@H]2c2ccc(O)c(O)c2)cc1O [Compound 29, (2R,3S)-2-(3,4-dihydroxyphenyl)-5,7-dihydroxychroman-3-yl 6-amino-5-hydroxynicotinate] | > 1 |
| CS(=O)(=O)Nc1ccc(C(=O)O[C@H]2Cc3c(O)cc(O)cc3O[C@@H]2c2ccc(O)c(O)c2)cc1O [Compound 30, (2R,3S)-2-(3,4-dihydroxyphenyl)-5,7-dihydroxychroman-3-yl 3-hydroxy-4-(methylsulfonamido)benzoate] | > 1 |
| O=C(O[C@@H]1Cc2c(O)cc(O)cc2O[C@H]1c1ccc(O)c(O)c1)c1ccc(O)c(O)c1 [Compound 31, (2S,3R)-2-(3,4-dihydroxyphenyl)-5,7-dihydroxychroman-3-yl 3,4-dihydroxybenzoate] | > 0.1 |
| Nc1ccc(C(=O)O[C@@H]2Cc3c(O)cc(O)cc3O[C@H]2c2cc(O)c(O)c(O)c2)cc1O [Compound 35, (2S,3R)-5,7-dihydroxy-2-(3,4,5-trihydroxyphenyl)chroman-3-yl 4-amino-3-hydroxybenzoate] | > 1 |
